Data reported in patent US9822336B2, “Blastoid, cell line based artificial blastocyst” (Universiteit Maastricht, priority 2013, dated 2017).

What was measured:
Assay type in all cases: cell-based, mouse
ES-TS cell clusters [1] = assay: Cavitation of ES-TS cell clusters (yield of cavitated blastoids); conditions: for yield of blastoids cavitation: FIG. 4i, added to CHIR99021 3 uM, versus control with CHIR99021 3 uM only; for yield of cavitated blastoids / cavitation: FIG. 4h
Description: FIG. 4c: […], The yield of cavitated blastoids is described by the percentage of ES-TS cell clusters that were cavitated after 96 hours of culture, thus forming an artificial blastocyst or blastoid. […]
The efficiency of blastoid formation is measured as the percentage of cavitated structures with (1) an external cellular layer expressing the transcription factors CDX2, Eomes and GATA3 and (2) an internal cellular aggregate expressing the transcription factors Oct4 and Sox2 and at least partly Nanog.
The formation of a cavity is assessed by the formation of a volume within the aggregate that is not occupied by cellular nucleus. The formation of a cavity is preferably assessed using the cross-sectional section of a cellular aggregate stained with a nuclear-specific dye (for example DAPI).
• Double layer formation: the formation of an (at least) double layered cell aggregate with an external layer of TS cells and an inner layer of ES cells is evaluated using transgenic cell lines. Specifically, ES cells were transfected with Histone 2B and a Red Fluorescent Protein under the control of a cytomegalovirus promoter and clonally derived. The H2B-RFP ES cells are thus constitutively expressing a red fluorescence within their nucleus which allows for their tracking. • TS cells were derived from a mouse constitutively expressing Green Fluorescent Protein (GFP) under the control of a cytomegalovirus promoter in all cells. The GFP TS cells are thus expressing a green fluorescence in their cytoplasma which allows for their tracking. • The formation of a double-layered aggregate is thus assessed by observing a green outer layer of cells and a red inner layer of cells. The efficiency of engulfment is determined as the percentage of green-colored projection area (representing the TS cell layer) that overlaps with an artificial 3-pixel-wide ring drawn around the red-colored projection area (representing the inner aggregate of ES cells) after 24 hours of culturing the ES-TS cell clusters. The said efficiency of engulfment described in FIG. 4 represents the average value taken from approximately 200 ES-TS cell clusters. • Cavitation: The formation of a cavity is assessed by the formation of a volume within the aggregate that is not occupied by cellular nucleus. The formation of a cavity is preferably assessed using the cross-sectional section of a cellular aggregate stained with a nuclear-specific dye (for example DAPI). […] The expression of cdx2 is assessed as the number of GFP positive cells with a cdx2 positive nucleus per 10 μm microscopic section. The expression of the transcription factors Oct4 and Nanog is assessed by conventional immunocytochemistry in ES-TS aggregates including H2B-RFP expressing ES cells. The expression of Oct4 and Nanog is assessed as the number of H2B-RFP positive cells with an Oct4 or Nanog positive nucleus per 10 μm microscopic section. Pictoral Summary of the Procedure for Blastoid Formation: […]

[2] = tested on: inner cell mass (ICM) of blastoids; assay: Size of inner cell mass (ICM) in cavitated blastoids, projection area; conditions: up to a concentration of 1000 μM (FIG. 4f)
Text: FIG. 4d: size of inner cell mass (ICM) as a function of the average number of ES-cells seeded per microwell. Size of ICM, measured as the projection area of the ES cell cluster inside the cavitated blastoid, increases with increasing numbers of ES cells seeded per microwell.
The size of the inner cell mass (ICM) depends on the average number of ES-cells seeded, and increases with the number of ES-cells seeded per microwell as described in FIG. 4. The size as defined by its projection area is generally between 1000 and 5000 um^2, preferably between 2000 and 4500 um^2. The size is conveniently expressed by determining the projection area (in um^2) of the ICM through light microscopy.

[3] = tested on: Cdx2 expression in trophoblast stem cells of ES-TS aggregates; assay: Cdx2 expression by CDX2 immunostaining; conditions: CDX2 immunostaining (FIG. 4g)
Description: • Double layer formation: the formation of an (at least) double layered cell aggregate with an external layer of TS cells and an inner layer of ES cells is evaluated using transgenic cell lines. Specifically, ES cells were transfected with Histone 2B and a Red Fluorescent Protein under the control of a cytomegalovirus promoter and clonally derived. The H2B-RFP ES cells are thus constitutively expressing a red fluorescence within their nucleus which allows for their tracking. • TS cells were derived from a mouse constitutively expressing Green Fluorescent Protein (GFP) under the control of a cytomegalovirus promoter in all cells. The GFP TS cells are thus expressing a green fluorescence in their cytoplasma which allows for their tracking. • The formation of a double-layered aggregate is thus assessed by observing a green outer layer of cells and a red inner layer of cells. The efficiency of engulfment is determined as the percentage of green-colored projection area (representing the TS cell layer) that overlaps with an artificial 3-pixel-wide ring drawn around the red-colored projection area (representing the inner aggregate of ES cells) after 24 hours of culturing the ES-TS cell clusters. […] The formation of a cavity is preferably assessed using the cross-sectional section of a cellular aggregate stained with a nuclear-specific dye (for example DAPI). […]

ES-TS cell clusters [4] = assay: Efficiency of engulfment during formation of ES-TS cell clusters; conditions: at higher concentration of Y27632; after 24 hours of culture (FIG. 4a)
Description: Mouse TS-cells were seeded at 17 cells/microwell in 150 μL B27N2 medium. After 20 minutes, 1 ml of B27N2 medium was added that included 10% FBS, Y27632 20 μM, 8Br-cAMP (1 mM), 007-AM (1 nM) and CHIR 3 μM, FGF4 15 ng/ml, Tgfb1 5 ng/ml, IGF2, 10 ng/ml, estradiol 10 ng/ml. The cells were placed in an incubator set at 37° Celsius to form the ES-TS cell cluster. • Double layer formation: the formation of an (at least) double layered cell aggregate with an external layer of TS cells and an inner layer of ES cells is evaluated using transgenic cell lines. […] The H2B-RFP ES cells are thus constitutively expressing a red fluorescence within their nucleus which allows for their tracking. • TS cells were derived from a mouse constitutively expressing Green Fluorescent Protein (GFP) under the control of a cytomegalovirus promoter in all cells. The GFP TS cells are thus expressing a green fluorescence in their cytoplasma which allows for their tracking. • The formation of a double-layered aggregate is thus assessed by observing a green outer layer of cells and a red inner layer of cells. […] The said efficiency of engulfment described in FIG. 4 represents the average value taken from approximately 200 ES-TS cell clusters. • Cavitation: The formation of a cavity is assessed by the formation of a volume within the aggregate that is not occupied by cellular nucleus. […]

For `Nc1ncnc2c1nc(Br)n2[C@@H]1O[C@@H]2COP(=O)(O)O[C@H]2[C@H]1O` [8Br-cAMP], the yield of cavitation (ES-TS cell clusters [1]; 8Br-cAMP 0.1-10 mM, for example 1 mM) was “increases the yield of cavitation”, the “yield of blastoids cavitation” value (ES-TS cell clusters [1]) was “increase the yield of blastoids cavitation” and the “size of ICM” value [2] was “positively correlates with an increase in the size of ICM”.
For `Oc1nc(-c2ccc(C(F)(F)F)cc2)nc2c1CSCC2` [XAV939], the “yield of cavitated blastoids / cavitation” value (ES-TS cell clusters [1]; CHIR99021 at 3 uM) was “prevents the cavitation of blastoids”.
“IGF2: a protein and a growth factor known in the art to activate the Akt pathway” was tested, and the Cdx2 expression [3] was “positively correlates with an increase of Cdx2 expression”.
`Cc1c[nH]c(-c2cnc(NCCNc3ccc(C#N)cn3)nc2-c2ccc(Cl)cc2Cl)n1` [CHIR99021, 6-{2-[4-(2,4-dichloro-phenyl)-5-(4-methyl-1H-imidazol-2-yl)-pyrimidin-2-ylamino]-ethylamino}-nicotinonitrile] was tested, and the blastoid yield (ES-TS cell clusters [1]; CHIR99021 at 3 uM) was 10%, the blastoid yield (ES-TS cell clusters [1]; CHIR99021 at 20 uM) was roughly 30% and the “yield of cavitated blastoids / cavitation” value (ES-TS cell clusters [1]; CHIR99021 at 3 uM) was “increases the yield of cavitated blastoids”. The “yield of cavitated blastoids” value (ES-TS cell clusters [1]; increasing concentrations (FIG. 4e)) was “positively correlate with an increase in the yield of cavitated blastoids”.
In the case of `CC(C)[C@H]1C(=O)N[C@H](CO)Cc2c[nH]c3cccc(c23)N1C` [Indolactam V], the “yield of blastoids cavitation” value (ES-TS cell clusters [1]) is reported as “increase the yield of blastoids cavitation” and the yield of cavitation (ES-TS cell clusters [1]; Indolactam V 0.1-10 uM, for example 1 uM) is reported as “increases the yield of cavitation”.
In the case of `C[C@@H](N)[C@H]1CC[C@H](C(=O)Nc2ccncc2)CC1` [Y27632, (1R,4r)-4-((R)-1-aminoethyl)-N-(pyridin-4-yl)cyclohexanecarboxamide], the efficiency of engulfment (ES-TS cell clusters [4]) is reported as “increase in efficiency of engulfment”.
